Assay results: patent publication US11427544B2, “Histone deacetylase 6 inhibitors and use thereof” (TAIPEI MEDICAL UNIVERSITY, priority 2016, dated 2022)
Like-named read-outs stand apart in the source and are kept apart here.

What was measured:
[1] = system: HCT116 colorectal cancer cell line; test: Antiproliferative activity, HCT116; assay type: cell-based; settings: Homo sapiens, HCT-116
Experimental: (§1) A study was conducted to evaluate the inhibitory activity of compounds of Formula (I) in inhibiting HDAC6, antiproliferative activity of test compounds in suppressing cancer cell growth, and selectivity of inhibiting HDAC6 over other HDAC isoforms.
(§2) The study was performed according to the protocol reported in Hsieh et al., Cell Death and Disease, 2014, April; 5:e1166.
(§3) Shown in Table 2 below are antiproliferative activities (measured by their half maximal concentration for inhibiting cell growth, i.e., GI50) of the test compounds against various cancer cell lines.

[2] = system: PC-3 prostate cancer cell line; test: Antiproliferative activity, PC-3; assay type: cell-based, human
Experimental: as §1, §2, §3

HDAC6 = target: T1, HDAC6 (Homo sapiens, UniProt Q9UBN7); test: Fluorogenic HDAC assay, HDAC6; assay type: biochemical; settings: recombinant HDAC6; read-out: Enzyme IC50 HDAC6
T1 construct: purchased BPS Bioscience Corp
T1 sequence (Q9UBN7 1-1215): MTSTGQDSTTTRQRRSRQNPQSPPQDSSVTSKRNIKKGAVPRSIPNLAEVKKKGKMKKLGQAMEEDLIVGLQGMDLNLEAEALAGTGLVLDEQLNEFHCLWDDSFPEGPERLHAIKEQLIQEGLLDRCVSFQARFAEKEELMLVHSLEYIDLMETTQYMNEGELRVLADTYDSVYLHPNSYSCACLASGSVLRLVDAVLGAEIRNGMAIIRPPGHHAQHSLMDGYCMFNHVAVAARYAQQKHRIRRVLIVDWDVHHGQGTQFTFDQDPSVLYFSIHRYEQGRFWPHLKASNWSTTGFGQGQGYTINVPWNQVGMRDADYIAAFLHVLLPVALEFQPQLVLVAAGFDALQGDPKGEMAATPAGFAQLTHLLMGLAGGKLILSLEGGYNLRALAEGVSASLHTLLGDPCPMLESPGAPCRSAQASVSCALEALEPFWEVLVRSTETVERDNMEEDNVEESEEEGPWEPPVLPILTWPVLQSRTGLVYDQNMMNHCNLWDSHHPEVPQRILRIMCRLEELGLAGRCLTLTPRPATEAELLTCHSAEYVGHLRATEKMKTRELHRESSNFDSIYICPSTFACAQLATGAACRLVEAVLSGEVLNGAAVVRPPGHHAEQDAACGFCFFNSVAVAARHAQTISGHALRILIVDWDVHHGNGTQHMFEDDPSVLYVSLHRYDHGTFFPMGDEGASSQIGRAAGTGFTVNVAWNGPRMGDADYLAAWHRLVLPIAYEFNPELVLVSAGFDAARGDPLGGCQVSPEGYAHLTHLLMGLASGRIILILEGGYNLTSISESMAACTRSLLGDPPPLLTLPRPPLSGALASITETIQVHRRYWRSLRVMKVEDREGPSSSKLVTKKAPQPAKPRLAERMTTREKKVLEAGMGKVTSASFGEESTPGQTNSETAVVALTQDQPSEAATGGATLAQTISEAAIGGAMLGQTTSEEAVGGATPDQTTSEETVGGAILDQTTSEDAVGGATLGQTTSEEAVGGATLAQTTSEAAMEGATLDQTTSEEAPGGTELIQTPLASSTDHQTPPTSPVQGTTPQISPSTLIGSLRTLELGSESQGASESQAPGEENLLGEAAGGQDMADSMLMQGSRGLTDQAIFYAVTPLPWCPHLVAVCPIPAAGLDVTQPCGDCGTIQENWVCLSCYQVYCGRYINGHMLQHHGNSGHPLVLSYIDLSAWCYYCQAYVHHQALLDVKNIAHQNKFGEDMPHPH
Excerpt: (§4) Of note, there are eighteen human HDACs. Eleven of them, designated as HDAC1-11, are zinc-dependent. Seven of them, designated as Sirt1-7, are NAD+-dependent.
(§5) Fluorogenic HDAC assay kits were used to assess the ability of HDAC inhibitors to inhibit deacetylation of lysine residues on a substrate by recombinant proteins HDAC1, 3, 4, 5, 6, 7, 8, 9 and Sirt1 according to the manufacturer's instructions (BPS Bioscience Corp., San Diego, Calif., USA).

[3] = system: A549 lung cancer cell line; test: Antiproliferative activity, A549; assay type: cell-based, human
Experimental: as §1, §2, §3

HDAC1 = target: T2, HDAC1 (Homo sapiens, UniProt Q13547); test: Fluorogenic HDAC assay, HDAC1; assay type: biochemical; settings: recombinant HDAC1; read-out: Enzyme IC50 HDAC1
T2 construct: purchased BPS Bioscience Corp
T2 sequence (Q13547 whole entry): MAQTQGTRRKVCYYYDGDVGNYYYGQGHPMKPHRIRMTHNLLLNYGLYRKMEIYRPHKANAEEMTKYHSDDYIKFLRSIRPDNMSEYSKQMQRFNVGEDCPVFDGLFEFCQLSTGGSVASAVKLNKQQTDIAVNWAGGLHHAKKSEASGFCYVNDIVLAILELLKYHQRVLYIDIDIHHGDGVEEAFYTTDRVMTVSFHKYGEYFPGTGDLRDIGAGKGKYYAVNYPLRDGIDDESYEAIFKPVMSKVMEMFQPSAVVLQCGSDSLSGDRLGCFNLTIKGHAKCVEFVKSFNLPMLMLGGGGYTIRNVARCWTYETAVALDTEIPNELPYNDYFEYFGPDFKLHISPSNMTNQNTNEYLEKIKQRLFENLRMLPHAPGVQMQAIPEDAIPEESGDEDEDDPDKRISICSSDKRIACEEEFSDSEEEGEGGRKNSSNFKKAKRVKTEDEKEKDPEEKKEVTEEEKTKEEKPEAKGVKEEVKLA
Excerpt: as §4, §5

HL60 leukemia cell line = test: Antiproliferative activity, HL60; assay type: cell-based; settings: Homo sapiens, HL-60
Experimental: as §1, §2, §3

In the case of `O=C(NO)c1ccc(CNc2ccc3ccccc3n2)cc1` [Compound 40, N-hydroxy-4-((quinolin-2-ylamino)methyl)benzamide], the GI50 [1] is reported as 290 ± 20 nM and the GI50 ([2]; Homo sapiens) is reported as 0.85 ± 0.09 µM.

`Cc1ccc2cccc(NCc3ccc(C(=O)NO)cc3)c2n1` [Compound 68, N-hydroxy-4-(((2-methylquinolin-8-yl)amino)methyl)benzamide] showed an IC50 (HDAC6) of 12.1 nM, a GI50 ([3]; Homo sapiens) of 5.89 ± 0.42 µM and a GI50 ([2]; Homo sapiens) of 4.45 ± 0.92 µM. It also gave an IC50 (HDAC1) of 1690 nM.

`O=C(/C=C/c1ccc(C(=O)Nc2cccc3ncccc23)cc1)NO` [Compound 18, (E)-4-(3-(hydroxyamino)-3-oxoprop-1-enyl)-N-(quinolin-5-yl)benzamide] showed a GI50 ([3]; Homo sapiens) of over 10 µM and a GI50 ([2]; Homo sapiens) of over 10 µM.

`O=C(NO)c1ccc(CNc2nccc3ccccc23)cc1` [Compound 61, N-hydroxy-4-((isoquinolin-1-ylamino)methyl)benzamide] showed a GI50 [1] of 660 ± 100 nM and a GI50 (HL60 leukemia cell line) of 1.17 ± 0.23 µM.

With `O=C(/C=C/c1ccc(C(=O)Nc2ccc3ncccc3c2)cc1)NO` [Compound 26, (E)-4-(3-(hydroxyamino)-3-oxoprop-1-enyl)-N-(quinolin-6-yl)benzamide] the GI50 ([3]; Homo sapiens) was over 10 µM and the GI50 ([2]; Homo sapiens) was over 10 µM.

`O=C(NO)c1ccc(CNc2ccc3ncccc3c2)cc1` [Compound 20, N-hydroxy-4-((quinolin-6-ylamino)methyl)benzamide] was tested, and the IC50 (HDAC6) was 19 nM, the GI50 ([3]; Homo sapiens) was over 10 µM and the GI50 ([2]; Homo sapiens) was over 10 µM. It also gave an IC50 (HDAC1) of over 100000 nM.

With `O=C(NO)c1ccc(C(=O)Nc2cnc3ccccc3c2)cc1` [Compound 8, N^1-hydroxy-N^4-(quinolin-3-yl)terephthalamide] the GI50 ([3]; Homo sapiens) was over 10 µM and the GI50 ([2]; Homo sapiens) was over 10 µM.

Work on `O=C(NO)c1ccc(CCc2cccc3cccnc23)cc1` [Compound 52, N-hydroxy-4-(2-(quinolin-8-yl)ethyl)benzamide] yielded a GI50 [1] of 3050 ± 90 nM and a GI50 ([2]; Homo sapiens) of 9.66 ± 0.07 µM.

`O=C(/C=C/c1ccc(CNc2ccc3ncccc3c2)cc1)NO` [Compound 22, (E)-N-hydroxy-3-(4-((quinolin-6-ylamino)methyl)phenyl)acrylamide] gave a GI50 ([3]; Homo sapiens) of over 10 µM and a GI50 ([2]; Homo sapiens) of over 10 µM.

With `O=C(Cc1ccc(C(=O)Nc2cccc3cccnc23)cc1)NO` [Compound 50, 4-(2-(hydroxyamino)-2-oxoethyl)-N-(quinolin-8-yl)benzamide] the GI50 ([3]; Homo sapiens) was over 10 µM and the GI50 ([2]; Homo sapiens) was over 10 µM.

With `O=C(NO)c1ccc(C(=O)Nc2cccc3cccnc23)cc1` [Compound 32, N^1-hydroxy-N^4-(quinolin-8-yl)terephthalamide] the GI50 ([3]; Homo sapiens) was over 10 µM and the GI50 ([2]; Homo sapiens) was over 10 µM.

`O=C(NO)c1ccc(CNc2cccc3ccncc23)cc1` [Compound 56, N-hydroxy-4-((isoquinolin-8-ylamino)methyl)benzamide] gave a GI50 ([3]; Homo sapiens) of 1.76 ± 0.21 µM and a GI50 ([2]; Homo sapiens) of 4.91 ± 0.24 µM.

`O=C(NO)c1ccc(C(=O)Nc2cccc3ncccc23)cc1` [Compound 16, N1-hydroxy-N4-(quinolin-5-yl)terephthalamide] gave a GI50 ([3]; Homo sapiens) of over 10 µM and a GI50 ([2]; Homo sapiens) of over 10 µM.

`O=C(/C=C/c1ccc(CNc2cnc3ccccc3c2)cc1)NO` [Compound 6, (E)-N-hydroxy-3-(4-((quinolin-3-ylamino)methyl)phenyl)acrylamide] gave a GI50 ([3]; Homo sapiens) of 0.71 ± 0.01 µM and a GI50 ([2]; Homo sapiens) of 0.38 ± 0.03 µM.

`O=C(NO)c1ccc(CNc2cccc3nccnc23)cc1` [Compound 66, N-hydroxy-4-((quinoxalin-5-ylamino)methyl)benzamide] gave a GI50 [1] of 1950 ± 210 nM and a GI50 (HL60 leukemia cell line) of 5.58 ± 0.15 µM.

Molecule `O=C(NO)c1ccc(CNc2cnc3ccccc3c2)cc1` [Compound 4, N-hydroxy-4-((quinolin-3-ylamino)methyl)benzamide] has an IC50 (HDAC6) of 19.1 nM, a GI50 ([3]; Homo sapiens) of 2.73 ± 0.24 µM and a GI50 ([2]; Homo sapiens) of 1.62 ± 0.2 µM. The IC50 (HDAC1) was 780 nM.

Molecule `O=C(NO)c1cccc(CNc2cccc3cccnc23)c1` [Compound 36, N-hydroxy-3-((quinolin-8-ylamino)methyl)benzamide] has a GI50 [1] of over 10000 nM and a GI50 ([2]; Homo sapiens) of over 10 µM.

With `O=C(/C=C/c1ccc(CNc2cccc3ncccc23)cc1)NO` [Compound 14, (E)-N-hydroxy-3-(4-((quinolin-5-ylamino)methyl)phenyl)acrylamide] the GI50 ([3]; Homo sapiens) was 1.25 ± 0.08 µM and the GI50 ([2]; Homo sapiens) was 0.62 ± 0.05 µM.

Work on `O=C(NO)c1ccc(CNc2cccc3cnccc23)cc1` [Compound 54, N-hydroxy-4-((isoquinolin-5-ylamino)methyl)benzamide] yielded a GI50 ([3]; Homo sapiens) of 4.64 ± 0.25 µM and a GI50 ([2]; Homo sapiens) of 6.06 ± 0.4 µM.

For `O=C(NO)c1ccc(CNc2ccnc3ccccc23)cc1` [Compound 44, N-hydroxy-4-((quinolin-4-ylamino)methyl)benzamide], the GI50 [1] was 3280 ± 480 nM.

In the case of `O=C(/C=C/c1ccc(CNc2cccc3cccnc23)cc1)NO` [Compound 30, (E)-N-hydroxy-3-(4-((quinolin-8-ylamino)methyl)phenyl)acrylamide], the GI50 ([3]; Homo sapiens) is reported as 1.11 ± 0.05 µM and the GI50 ([2]; Homo sapiens) is reported as 1.25 ± 0.02 µM.

Work on `O=C(/C=C/c1ccc(C(=O)Nc2cccc3cccnc23)cc1)NO` [Compound 34, (E)-4-(3-(hydroxyamino)-3-oxoprop-1-enyl)-N-(quinolin-8-yl)benzamide] yielded a GI50 ([3]; Homo sapiens) of 4.26 ± 0.07 µM and a GI50 ([2]; Homo sapiens) of 3.51 ± 0.18 µM.

In the case of `O=C(NO)c1ccc(C(=O)Nc2ccc3ncccc3c2)cc1` [Compound 24, N^1-hydroxy-N^4-(quinolin-6-yl)terephthalamide], the GI50 ([3]; Homo sapiens) is reported as over 10 µM and the GI50 ([2]; Homo sapiens) is reported as over 10 µM.

For `O=C(NO)c1ccc(Nc2cccc3cccnc23)cc1` [Compound 59, N-hydroxy-4-(quinolin-8-ylamino)benzamide], the GI50 [1] was 3320 ± 210 nM and the GI50 (HL60 leukemia cell line) was 6.64 ± 0.69 µM.

`O=C(NO)c1ccc(NCc2cccc3cccnc23)cc1` [Compound 75, N-hydroxy-4-(quinolin-8-ylmethylamino)benzamide] was tested, and the IC50 (HDAC6) was 11 nM, the GI50 ([3]; Homo sapiens) was 6.32 ± 0.92 µM and the GI50 ([2]; Homo sapiens) was over 10 µM. The IC50 (HDAC1) was 2040 nM.

`O=C(NO)c1ccc(CNc2ccc3cccnc3c2)cc1` [Compound 42, N-hydroxy-4-((quinolin-7-ylamino)methyl)benzamide] gave a GI50 [1] of 620 ± 30 nM and a GI50 ([2]; Homo sapiens) of 2.64 ± 0.14 µM.

Molecule `CN1CCc2c(c3ccccc3n2Cc2ccc(C(=O)NO)cc2)C1` [Tubastatin A, reference compound] has a GI50 [3] of 52.2 ± 1.28 µM and a GI50 [2] of 48.19 ± 0.43 µM.

For `O=C(/C=C/c1ccc(C(=O)Nc2cnc3ccccc3c2)cc1)NO` [Compound 10, (E)-4-(3-(hydroxyamino)-3-oxoprop-1-enyl)-N-(quinolin-3-yl)benzamide], the GI50 ([3]; Homo sapiens) was over 10 µM and the GI50 ([2]; Homo sapiens) was over 10 µM.

For `O=C(NO)c1ccc(CNc2cncc3ccccc23)cc1` [Compound 63, N-hydroxy-4-((isoquinolin-4-ylamino)methyl)benzamide], the GI50 [1] was 1200 ± 140 nM and the GI50 (HL60 leukemia cell line) was 1.96 ± 0.16 µM.

`O=C(NO)c1ccc(CSc2cccc3cccnc23)cc1` [Compound 73, N-hydroxy-4-((quinolin-8-ylthio)methyl)benzamide] showed an IC50 (HDAC6) of 23.4 nM, a GI50 ([3]; Homo sapiens) of 6.11 ± 0.69 µM and a GI50 ([2]; Homo sapiens) of 4.29 ± 0.7 µM. The IC50 (HDAC1) was 2200 nM.

`O=C(NO)c1ccc(COc2cccc3cccnc23)cc1` [Compound 71, N-hydroxy-4-((quinolin-8-yloxy)methyl)benzamide] was tested, and the IC50 (HDAC6) was 11 nM, the GI50 ([3]; Homo sapiens) was 7.81 ± 1.17 µM and the GI50 ([2]; Homo sapiens) was 6.23 ± 0.32 µM.

`O=C(NO)c1cccc(C(=O)Nc2cccc3cccnc23)c1` [Compound 38, M-hydroxy-N^3-(quinolin-8-yl)isophthalamide] showed a GI50 [1] of over 10000 nM and a GI50 ([2]; Homo sapiens) of over 10 µM.

In the case of `O=C(NO)c1ccc(C(=O)NCc2cccc3cccnc23)cc1` [Compound 47, N^1-hydroxy-N^4-(quinolin-8-ylmethyl)terephthalamide], the GI50 ([3]; Homo sapiens) is reported as 7.77 ± 0.03 µM and the GI50 ([2]; Homo sapiens) is reported as 2.08 ± 0.1 µM.
